Assay results reported in patent US5665721A, “Heterocyclic substituted cyclopentane compounds” (Abbott Laboratories, priority 1995, dated 1997).

How the values were obtained:
adenosine kinase [1] = molecular target: adenosine kinase (Homo sapiens, UniProt P55263); test: In vitro inhibition of adenosine kinase activity; assay type: biochemical
Description: The adenosine kinase to be inhibited can be located in vitro, in situ or in vivo. Where the adenosine kinase is located in vitro, adenosine kinase is contacted with the inhibitor compound, typically by adding the compound to an aqueous solution containing the enzyme, radiolabeled substrate adenosine, magnesium chloride and ATP. The enzyme can exist in intact cells or in isolated subcellular fractions containing the enzyme. The enzyme is then maintained in the presence of the inhibitor for a period of time and under suitable physiological conditions. Means for determining maintained times are well known in the art and depend inter alia on the concentrations of enzyme and the physiological conditions. Suitable physiological conditions are those necessary to maintain adenosine kinase viability and include temperature, acidity, tonicity and the like. Inhibition of adenosine kinase can be performed, by example, according to standard procedures well known in the art (Yamada et at., Comp. Biochem. Physiol. 1982, 71B: 367-372).
In vitro adenosine kinase activity can be measured using any of the standard procedures well known in the art. By way of example, cells containing adenosine kinase, such as IMR-32 human neuroblastoma cells, are cultured in the presence and absence of an inhibitor. Inhibition is measured as the ability to inhibit phosphorylation of endogenous or externally applied ^14 C-adenosine by these cells. The cells can be intact or broken. The specificity of adenosine kinase inhibitory activity is determined by studying the effects of inhibitors on adenosine A1 and A2a receptor binding, adenosine deaminase activity and adenosine transport.
Numerous inhibitor compounds of the present invention were tested in vitro and found to inhibit adenosine kinase activity. The results of some representative studies are shown below in Tables 1 and 2.

adenosine kinase [2] = conditions: literature; cited from earlier work

Chain of adenosine kinase (Homo sapiens, UniProt P55263) (P55263 whole entry, species assumed): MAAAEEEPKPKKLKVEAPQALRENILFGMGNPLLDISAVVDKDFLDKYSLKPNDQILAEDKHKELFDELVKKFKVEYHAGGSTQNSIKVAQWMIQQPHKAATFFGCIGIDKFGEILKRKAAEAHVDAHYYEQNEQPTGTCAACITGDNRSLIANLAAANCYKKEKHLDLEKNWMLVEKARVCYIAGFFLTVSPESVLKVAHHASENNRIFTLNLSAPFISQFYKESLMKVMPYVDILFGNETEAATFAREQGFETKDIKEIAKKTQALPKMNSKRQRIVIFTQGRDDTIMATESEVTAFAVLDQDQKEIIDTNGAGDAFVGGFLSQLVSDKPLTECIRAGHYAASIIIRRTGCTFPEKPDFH

Row | SMILES | IC50 (adenosine kinase [1]; Table 2, in vitro) [nM] | IC50 (adenosine kinase [1]; Table 1, in vitro) [nM] | other results
1 | N[C@H]1C[C@@H](n2cc(I)c3c(Cl)ncnc32)[C@@H]2OC(=O)O[C@@H]21 [drawing 21 (R=H, R5=Cl), N7-((1'R,2'S,3'R,4'S)-2',3'--O-(2"-oxo-1",3"-dioxalyl)-4'-amino-cyclopentyl)-4-chloro-5-iodo-pyrrolopyrimidine] | 2.5 |  | 
2 | CC(=O)N[C@H]1C[C@@H](n2cc(I)c3c(Cl)ncnc32)[C@H](O)[C@@H]1O [drawing 18 (R5=Cl, R=CH3CO), N7-((1'R,2'S,3'R,4'S)-2',3'-dihydroxy-4'-(acetyl)amino-cyclopentyl)-4-chloro-5-iodo-pyrrolopyrimidine] | 350 |  | 
3 | C[C@H]1O[C@@H](n2cc(I)c3c(N)ncnc32)[C@H](O)[C@@H]1O [5'-deoxy-5-iodotubercidin] |  |  | reported to inhibit adenosine kinase (in words) (adenosine kinase [2]): most potent
4 | O[C@@H]1[C@H](O)[C@@H](O)C[C@H]1n1cc(Cl)c2c(Cl)ncnc21 [drawing 13 (R5=Cl, R6=Cl), N7-((1'R,2'S,3'R,4'S)-2',3',4'-trihydroxycyclopentyl)-4,5-dichloro-pyrrolopyrimidine] |  | 90 | 
5 | CC(C)(C)OC(=O)N[C@H]1C[C@@H](n2cc(I)c3c(N)ncnc32)[C@H](O)[C@@H]1O [drawing 14 (R4=NHBoc, R5=NH2, R6=I), N7-((1'R,2'S,3'R,4'S)-2',3'-dihydroxy-4'-(t-butoxycarbonylamino)-cyclopentyl)-4-amino-5-iodo-pyrrolopyrimidine] |  | 15 | 
6 | O=C(N[C@H]1C[C@@H](n2cc(I)c3c(O)ncnc32)[C@H](O)[C@@H]1O)C(F)(F)F [drawing 18 (R5=OH, R=CF3CO), N7-((1'R,2'S,3'R,4'S)-2',3'-dihydroxy-4'-(trifluoroacetyl)amino-cyclopentyl)-4-hydroxy-5-iodo-pyrrolopyrimidine] | 200 |  | 
7 | CC(=O)N[C@H]1C[C@@H](n2cc(I)c3c(Cl)ncnc32)[C@H](OC(C)=O)[C@@H]1OC(C)=O [drawing 17 (R5=Cl)] | > 10000 |  | 
8 | O[C@@H]1[C@H](O)[C@@H](O)C[C@H]1n1cc(-c2ccccc2)c2c(Cl)ncnc21 [drawing 13 (R5=Cl, R6=Ph), N7-((1'R,2'S,3'R,4'S)-2',3',4'-trihydroxycyclopentyl)-4-chloro-5-phenyl-pyrrolopyrimidine] |  | 45 | 
9 | Nc1ncnc2c1c(C#Cc1ccccc1)cn2[C@@H]1C[C@H](O)[C@@H](O)[C@H]1O [drawing 13 (R5=NH2, R6=PhCC), N7-((1'R,2'S,3'R,4'S)-2',3',4'-trihydroxycyclopentyl)-4-amino-5-phenylacetylenyl-pyrrolopyrimidine] |  | 230 | 
10 | CN[C@H]1C[C@@H](n2cc(C)c3c(Cl)ncnc32)[C@H](O)[C@@H]1O [drawing 14 (R4=CH3NH, R5=Cl, R6=CH3), N7-((1'R,2'S,3'R,4'S)-2',3'-dihydroxy-4'-(methyl)amino-cyclopentyl)-4-chloro-5-methyl-pyrrolopyrimidine] |  | 300 | 
11 | O[C@@H]1[C@H](O)[C@@H](O)C[C@H]1n1cc(-c2ccccc2)c2c(Nc3ccccc3)ncnc21 [drawing 13 (R5=NHPh, R6=Ph), N7-((1'R,2'S,3'R,4'S)-2',3',4'-trihydroxycyclopentyl)-4-(phenyl)amino-5-phenyl-pyrrolopyrimidine] |  | 3 | 
12 | O[C@@H]1[C@H](O)[C@@H](O)C[C@H]1n1cc(I)c2c(Nc3ccccc3)ncnc21 [drawing 13 (R5=NHPh, R6=I), N7-((1'R,2'S,3'R,4'S)-2',3',4'-trihydroxycyclopentyl)-4-(phenyl)amino-5-iodo-pyrrolopyrimidine] |  | 100 | 
13 | CC(C)(C)OC(=O)N(C(=O)OC(C)(C)C)[C@H]1C[C@@H](n2cc(I)c3c(Cl)ncnc32)[C@H](O)[C@@H]1O [drawing 14 (R4=Boc2N, R5=Cl, R6=I), N7-((1'R,2'S,3'R,4'S)-2',3'-dihydroxy-4'-(bis-t-butoxycarbonylamino)-cyclopentyl)-4-chloro-5-iodo pyrrolopyrimidine] |  | > 1000 | 
14 | CC(C)(C)OC(=O)N[C@H]1C[C@@H](n2cc(I)c3c(N)ncnc32)[C@H](O)[C@@H]1O [drawing 18 (R5=NH2, R=NHBoc), N7-((1'R,2'S,3'R,4'S)-2',3'-dihydroxy-4'-(t-butoxycarbonylamino)-cyclopentyl)-4-amino-5-iodo-pyrrolopyrimidine] | 150 |  | 
15 | CC(=O)N[C@H]1C[C@@H](n2cc(I)c3c(Cl)ncnc32)[C@@H]2OC(=O)O[C@@H]21 [drawing 21 (R=CH3CO, R5=Cl), N7-((1'R,2'S,3'R,4'S)-2',3'--O-(2"-oxo-1",3"-dioxalyl)-4'-(acetyl)amino-cyclopentyl)-4-chloro-5-iodo-pyrrolopyrimidine] | 6300 |  | 
16 | CN(C)[C@H]1C[C@@H](n2cc(I)c3c(Cl)ncnc32)[C@H](O)[C@@H]1O [drawing 14 (R4=(CH3)2N, R5=Cl, R6=I), N7-((1'R,2'S,3'R,4'S)-2',3'-dihydroxy-4'-(dimethyl)amino-cyclopentyl)-4-chloro-5-iodo-pyrrolopyrimidine] |  | 20 | 

Row | SMILES | IC50 (adenosine kinase [1]; Table 2, in vitro) [nM] | IC50 (adenosine kinase [1]; Table 1, in vitro) [nM] | other results
17 | CC(=O)N[C@H]1C[C@@H](n2cc(I)c3c(O)ncnc32)[C@@H]2OC(=O)O[C@@H]21 [drawing 21 (R=CH3CO, R5=OH), N7-((1'R,2'S,3'R,4'S)-2',3'--O-(2"-oxo-1",3"-dioxalyl)-4'-(acetyl)amino-cyclopentyl)-4-hydroxy-5-iodo-pyrrolopyrimidine] | 4000 |  | 
18 | CC(=O)O[C@@H]1[C@H](OC(C)=O)[C@@H](OC(C)=O)C[C@H]1n1cc(-c2ccccc2)c2c(Cl)ncnc21 [drawing 16 (R5=Cl, R6=Ph), N7-((1'R,2'S,3'R,4'S)-2',3',4'-triacetoxycyclopentyl)-4-chloro-5-phenyl-pyrrolopyrimidine] | > 100000 |  | 
19 | O=C(N[C@H]1C[C@@H](n2cc(I)c3c(Cl)ncnc32)[C@H](O)[C@@H]1O)c1cccnc1 | 5 |  | 
20 | O=C(N[C@H]1C[C@@H](n2cc(I)c3c(Cl)ncnc32)[C@H](O)[C@@H]1O)C(F)(F)F [drawing 18 (R5=Cl, R=CF3CO), N7-((1'R,2'S,3'R,4'S)-2',3'-dihydroxy-4'-(trifluoroacetyl)amino-cyclopentyl)-4-chloro-5-iodo-pyrrolopyrimidine] | 110 |  | 
21 | Nc1ncnc2c1c(-c1ccccc1)cn2[C@@H]1C[C@H](O)[C@@H](O)[C@H]1O [drawing 13 (R5=NH2, R6=Ph), N7-((1'R,2'S,3'R,4'S)-2',3',4'-trihydroxycyclopentyl)-4-amino-5-phenyl-pyrrolopyrimidine] |  | 200 | 
22 | CC(=O)N[C@H]1C[C@@H](n2cc(I)c3c(N)ncnc32)[C@H](O)[C@@H]1O [drawing 18 (R5=NH2, R=CH3CO), N7-((1'R,2'S,3'R,4'S)-2',3'-dihydroxy-4'-(acetyl)amino-cyclopentyl)-4-amino-5-iodo-pyrrolopyrimidine] | 160 |  | 
23 | Nc1ncnc2c1c(CCc1ccccc1)cn2[C@@H]1C[C@H](O)[C@@H](O)[C@H]1O [drawing 13 (R5=NH2, R6=PhCH2CH2), N7-((1'R,2'S,3'R,4'S)-2',3',4'-trihydroxycyclopentyl)-4-amino-5-((2phenyl)ethyl)-pyrrolopyrimidine] |  | 300 | 
24 | O[C@@H]1[C@H](O)[C@@H](O)C[C@H]1n1cc(I)c2c(Cl)ncnc21 [drawing 13 (R5=Cl, R6=I), N7-((1'R,2'S,3'R,4'S)-2',3',4'-trihydroxycyclopentyl)-4-chloro-5-iodo-pyrrolopyrimidine] |  | 10 | 
25 | O[C@@H]1[C@H](O)[C@@H](O)C[C@H]1n1cc(C#Cc2ccccc2)c2c(Cl)ncnc21 [drawing 13 (R5=Cl, R6=PhCC), N7-((1'R,2'S,3'R,4'S)-2',3',4'-trihydroxycyclopentyl)-4-chloro-5-phenylacetylenyl-pyrrolopyrimidine] |  | 100 | 
26 | Nc1ncnc2c1c(I)cn2[C@@H]1C[C@H](N)[C@@H](O)[C@H]1O [drawing 14 (R4=H2N, R5=NH2, R6=I), N7-((1'R,2'S,3'R,4'S)-2',3'-dihydroxy-4'-amino-cyclopentyl)-4-amino-5-iodo-pyrrolopyrimidine] |  | 0.08 | 
27 | N[C@H]1C[C@@H](n2cc(I)c3c(Cl)ncnc32)[C@H](O)[C@@H]1O [drawing 14 (R4=H2N, R5=Cl, R6=I), N7-((1'R,2'S,3'R,4'S)-2',3'-dihydroxy-4'-amino-cyclopentyl)-4-chloro-5-iodo-pyrrolopyrimidine] |  | 0.035 | 
28 | N[C@@H]1C=C[C@H](n2cc(I)c3c(Cl)ncnc32)C1 |  |  | IC50 (adenosine kinase [1]; Table 1, in vitro, single structure): 2.5 nM
29 | O[C@@H]1[C@H](O)[C@@H](O)C[C@H]1n1cc(C#Cc2ccccc2)c2c(C#Cc3ccccc3)ncnc21 [drawing 13 (R5=PhCC, R6=PhCC), N7-((1'R,2'S,3'R,4'S)-2',3',4'-trihydroxycyclopentyl)-4,5-bis-phenylacetylenyl-pyrrolopyrimidine] |  | 15 | 
30 | CC(=O)O[C@@H]1[C@H](OC(C)=O)[C@@H](OC(C)=O)C[C@H]1n1cc(C#Cc2ccccc2)c2c(C#Cc3ccccc3)ncnc21 [drawing 16 (R5=PhCC, R6=PhCC), N7-((1'R,2'S,3'R,4'S)-2',3',4'-triacetoxycyclopentyl)-4,5-bis-phenylacetylenyl-pyrrolopyrimidine] | > 10000 |  | 
31 | Nc1ncnc2c1c(I)cn2[C@@H]1C[C@H](O)[C@@H](O)[C@H]1O [drawing 13 (R5=NH2, R6=I), N7-((1'R,2'S,3'R,4'S)-2',3',4'-trihydroxycyclopentyl)-4-amino-5-iodo-pyrrolopyrimidine] |  | 13 | 
